Read-outs that look alike come from different tables or passages of the source.

Among the data in doi:10.1101/2023.12.04.569845, “Identification of 4-(6-((2-methoxyphenyl)amino)pyrazin-2-yl)benzoic acids as CSNK2A inhibitors with antiviral activity and improved selectivity over PIM3” (bioRxiv, 2023) are ΔTm values, retold here.

What all share (test): biochemical
Holding throughout (parameters): Thermal shift (DSF, SYPRO Orange) Tm shift of recombinant kinase domains at 10 uM compound

The target of one assay is T1, BIKE (Homo sapiens, UniProt Q9NSY1).
T1 construct: gene BMP2K

A further assay concerns the target T2, CASK (Homo sapiens, UniProt O14936).
T2 sequence (O14936 1-926): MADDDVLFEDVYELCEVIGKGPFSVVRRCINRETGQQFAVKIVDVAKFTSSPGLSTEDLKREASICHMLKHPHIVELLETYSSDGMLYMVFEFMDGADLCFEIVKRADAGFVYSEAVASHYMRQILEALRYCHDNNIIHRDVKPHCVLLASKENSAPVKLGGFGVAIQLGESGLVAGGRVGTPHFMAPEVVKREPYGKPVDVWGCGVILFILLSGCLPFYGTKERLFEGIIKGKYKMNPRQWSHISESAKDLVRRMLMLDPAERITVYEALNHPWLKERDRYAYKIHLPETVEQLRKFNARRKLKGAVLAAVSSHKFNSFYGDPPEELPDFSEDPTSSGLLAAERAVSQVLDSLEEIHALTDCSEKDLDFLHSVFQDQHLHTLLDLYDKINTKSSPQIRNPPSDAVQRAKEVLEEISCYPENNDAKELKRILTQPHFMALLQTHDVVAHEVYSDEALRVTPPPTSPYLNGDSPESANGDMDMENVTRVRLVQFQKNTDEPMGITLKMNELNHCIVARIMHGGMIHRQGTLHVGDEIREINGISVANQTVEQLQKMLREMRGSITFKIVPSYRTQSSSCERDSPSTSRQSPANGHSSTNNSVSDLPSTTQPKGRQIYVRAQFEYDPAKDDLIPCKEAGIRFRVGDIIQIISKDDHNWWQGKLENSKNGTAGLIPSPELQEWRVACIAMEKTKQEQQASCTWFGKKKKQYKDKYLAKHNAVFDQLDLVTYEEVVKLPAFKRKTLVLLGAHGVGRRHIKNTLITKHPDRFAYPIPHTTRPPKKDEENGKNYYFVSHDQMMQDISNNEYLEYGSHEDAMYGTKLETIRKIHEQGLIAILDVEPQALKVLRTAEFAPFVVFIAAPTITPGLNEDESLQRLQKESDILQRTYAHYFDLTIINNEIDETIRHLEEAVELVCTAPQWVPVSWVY

In a further assay the target is T3, MARK4 (Homo sapiens, UniProt Q96L34).
T3 sequence (Q96L34 1-752): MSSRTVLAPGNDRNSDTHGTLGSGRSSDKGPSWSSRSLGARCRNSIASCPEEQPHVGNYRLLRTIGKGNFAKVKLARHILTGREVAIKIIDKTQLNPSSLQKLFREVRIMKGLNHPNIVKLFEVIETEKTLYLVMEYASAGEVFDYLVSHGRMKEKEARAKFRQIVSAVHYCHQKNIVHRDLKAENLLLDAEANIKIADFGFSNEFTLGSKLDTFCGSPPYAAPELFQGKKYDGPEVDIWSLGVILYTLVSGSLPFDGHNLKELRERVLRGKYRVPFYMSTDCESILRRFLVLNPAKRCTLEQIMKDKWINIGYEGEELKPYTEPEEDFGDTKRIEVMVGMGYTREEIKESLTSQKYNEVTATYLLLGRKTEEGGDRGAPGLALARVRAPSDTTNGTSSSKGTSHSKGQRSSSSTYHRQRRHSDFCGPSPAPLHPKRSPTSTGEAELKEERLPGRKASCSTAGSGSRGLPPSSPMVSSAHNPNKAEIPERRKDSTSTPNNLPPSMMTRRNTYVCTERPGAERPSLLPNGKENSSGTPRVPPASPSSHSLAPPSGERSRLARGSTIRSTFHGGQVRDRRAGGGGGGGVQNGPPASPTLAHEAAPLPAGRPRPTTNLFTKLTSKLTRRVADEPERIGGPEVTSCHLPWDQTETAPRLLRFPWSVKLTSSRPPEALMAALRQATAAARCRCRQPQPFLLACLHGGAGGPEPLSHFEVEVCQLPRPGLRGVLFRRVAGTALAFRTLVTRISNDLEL

For another assay, the target named is T4, NEK2 (Homo sapiens, UniProt P51955).
T4 sequence (P51955 1-445): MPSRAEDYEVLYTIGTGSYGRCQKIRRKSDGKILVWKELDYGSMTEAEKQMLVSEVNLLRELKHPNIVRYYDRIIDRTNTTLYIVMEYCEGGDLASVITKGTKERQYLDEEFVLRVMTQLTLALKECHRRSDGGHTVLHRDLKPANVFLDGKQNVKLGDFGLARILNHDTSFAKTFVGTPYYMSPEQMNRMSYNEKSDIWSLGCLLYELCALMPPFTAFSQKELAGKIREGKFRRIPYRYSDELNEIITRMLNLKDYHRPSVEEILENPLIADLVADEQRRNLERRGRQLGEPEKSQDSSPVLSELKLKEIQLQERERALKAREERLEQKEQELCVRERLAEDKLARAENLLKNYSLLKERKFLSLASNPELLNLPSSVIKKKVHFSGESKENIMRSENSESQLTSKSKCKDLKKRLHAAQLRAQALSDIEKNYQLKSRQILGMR

A further assay deals with T5, RSK1_b (Homo sapiens, UniProt Q15418).
T5 construct: gene RPS6KA1; second (C-terminal) kinase domain
T5 sequence (Q15418 whole entry, the tested form may be a part): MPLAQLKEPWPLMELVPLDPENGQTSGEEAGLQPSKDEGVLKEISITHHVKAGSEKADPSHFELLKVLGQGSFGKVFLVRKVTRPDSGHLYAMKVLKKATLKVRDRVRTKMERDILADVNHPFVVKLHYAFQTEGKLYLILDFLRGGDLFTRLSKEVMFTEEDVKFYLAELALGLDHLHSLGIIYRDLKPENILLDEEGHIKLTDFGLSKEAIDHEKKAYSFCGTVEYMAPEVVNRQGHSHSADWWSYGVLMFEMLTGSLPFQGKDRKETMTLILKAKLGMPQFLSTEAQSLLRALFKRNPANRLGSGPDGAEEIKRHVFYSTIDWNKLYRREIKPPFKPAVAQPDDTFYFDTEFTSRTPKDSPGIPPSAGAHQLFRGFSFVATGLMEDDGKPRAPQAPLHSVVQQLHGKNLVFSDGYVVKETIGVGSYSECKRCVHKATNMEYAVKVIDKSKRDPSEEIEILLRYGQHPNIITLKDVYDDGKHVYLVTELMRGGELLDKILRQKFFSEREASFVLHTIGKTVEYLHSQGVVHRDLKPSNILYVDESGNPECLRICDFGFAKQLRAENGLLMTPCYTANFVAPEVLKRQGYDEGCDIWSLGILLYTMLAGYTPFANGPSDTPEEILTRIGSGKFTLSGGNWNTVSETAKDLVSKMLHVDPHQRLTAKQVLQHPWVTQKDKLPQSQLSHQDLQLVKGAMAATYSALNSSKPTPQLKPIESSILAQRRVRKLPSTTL

T1 sequence (Q9NSY1 whole entry): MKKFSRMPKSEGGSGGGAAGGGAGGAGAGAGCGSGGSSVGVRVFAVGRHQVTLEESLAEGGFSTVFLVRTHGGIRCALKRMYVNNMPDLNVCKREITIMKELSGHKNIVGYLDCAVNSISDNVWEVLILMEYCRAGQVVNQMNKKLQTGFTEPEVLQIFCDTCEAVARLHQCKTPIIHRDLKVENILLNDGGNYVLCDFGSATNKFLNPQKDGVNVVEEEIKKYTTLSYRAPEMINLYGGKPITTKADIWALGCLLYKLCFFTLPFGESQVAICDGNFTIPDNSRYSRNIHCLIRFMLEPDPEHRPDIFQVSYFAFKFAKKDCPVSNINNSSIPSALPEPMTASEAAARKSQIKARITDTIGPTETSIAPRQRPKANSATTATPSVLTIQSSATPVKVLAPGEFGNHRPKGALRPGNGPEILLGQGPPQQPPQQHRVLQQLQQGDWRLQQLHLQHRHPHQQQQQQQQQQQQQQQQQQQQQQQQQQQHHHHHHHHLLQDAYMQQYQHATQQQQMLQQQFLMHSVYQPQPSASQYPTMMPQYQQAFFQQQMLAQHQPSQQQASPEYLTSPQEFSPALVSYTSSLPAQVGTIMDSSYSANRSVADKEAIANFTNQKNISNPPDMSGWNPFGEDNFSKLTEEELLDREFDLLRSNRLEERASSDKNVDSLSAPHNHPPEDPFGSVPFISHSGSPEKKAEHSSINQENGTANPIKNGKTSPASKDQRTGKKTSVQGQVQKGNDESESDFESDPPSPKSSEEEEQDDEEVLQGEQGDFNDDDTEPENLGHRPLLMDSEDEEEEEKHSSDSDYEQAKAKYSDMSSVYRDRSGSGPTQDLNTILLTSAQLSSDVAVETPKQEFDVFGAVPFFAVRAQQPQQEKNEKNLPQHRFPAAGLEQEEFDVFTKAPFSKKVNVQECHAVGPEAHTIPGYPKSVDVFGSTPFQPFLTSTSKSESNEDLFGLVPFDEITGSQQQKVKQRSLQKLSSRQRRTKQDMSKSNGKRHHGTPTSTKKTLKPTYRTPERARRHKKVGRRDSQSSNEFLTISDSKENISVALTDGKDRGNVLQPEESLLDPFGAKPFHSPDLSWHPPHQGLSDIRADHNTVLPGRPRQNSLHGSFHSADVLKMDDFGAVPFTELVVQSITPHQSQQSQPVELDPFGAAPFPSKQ

Turning to `CC(C)Oc1ccc2ccn(-c3cncc(-c4ccc(C(=O)O)cc4)n3)c2c1` [6c], the ΔTm at 10 µM is 11 °C at BIKE (read-out: 6c); 1 °C on CASK (read-out: 6c); 1 °C at MARK4 (read-out: 6c); -4 °C on NEK2 (read-out: 6c); 2 °C on RSK1_b (read-out: 6c).
For the compound `COc1ccc(OC(C)C)cc1Nc1cncc(-c2ccc(C(=O)O)cc2)n1` [7c], the ΔTm at 10 µM at BIKE (read-out: 7c) is 10 °C; on CASK (read-out: 7c) it was 0 °C; on MARK4 (read-out: 7c), 0 °C; at NEK2 (read-out: 7c) it was -1 °C; on RSK1_b (read-out: 7c), 1 °C.
Take `CC(C)Nc1ccc2cnn(-c3cncc(-c4ccc(C(=O)O)cc4)n3)c2c1` [compound 2, 2]: the ΔTm at 10 µM at BIKE (read-out: 2) is 13 °C; on CASK (read-out: 2), 0 °C; at MARK4 (read-out: 2) it was 1 °C; on NEK2 (read-out: 2) it was -2 °C; at RSK1_b (read-out: 2) it was 4 °C.
